Results taken from ChEMBL document CHEMBL5291721, “A preclinical secondary pharmacology resource illuminates target-adverse drug reaction associations of marketed drugs” (Nat Commun, 2023).

Columns and labels:
[1] = biological target: T1, 5-hydroxytryptamine receptor 1A (Homo sapiens, UniProt P08908); format: functional, cell-based
T1 sequence (P08908 whole entry): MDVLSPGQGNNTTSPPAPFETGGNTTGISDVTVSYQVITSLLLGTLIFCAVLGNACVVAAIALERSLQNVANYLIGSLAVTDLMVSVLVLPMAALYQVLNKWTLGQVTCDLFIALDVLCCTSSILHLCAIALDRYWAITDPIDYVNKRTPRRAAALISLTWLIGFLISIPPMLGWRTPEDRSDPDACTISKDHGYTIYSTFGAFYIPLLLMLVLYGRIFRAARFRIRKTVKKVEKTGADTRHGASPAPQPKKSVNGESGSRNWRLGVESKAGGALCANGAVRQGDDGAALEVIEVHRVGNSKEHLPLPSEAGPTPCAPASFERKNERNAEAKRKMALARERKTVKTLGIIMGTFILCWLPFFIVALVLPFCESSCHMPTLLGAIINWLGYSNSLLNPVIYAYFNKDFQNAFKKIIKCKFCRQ

[2] = biological target: T2, Alpha-1A adrenergic receptor (Homo sapiens, UniProt P35348); format: functional, cell-based
T2 sequence (P35348 whole entry): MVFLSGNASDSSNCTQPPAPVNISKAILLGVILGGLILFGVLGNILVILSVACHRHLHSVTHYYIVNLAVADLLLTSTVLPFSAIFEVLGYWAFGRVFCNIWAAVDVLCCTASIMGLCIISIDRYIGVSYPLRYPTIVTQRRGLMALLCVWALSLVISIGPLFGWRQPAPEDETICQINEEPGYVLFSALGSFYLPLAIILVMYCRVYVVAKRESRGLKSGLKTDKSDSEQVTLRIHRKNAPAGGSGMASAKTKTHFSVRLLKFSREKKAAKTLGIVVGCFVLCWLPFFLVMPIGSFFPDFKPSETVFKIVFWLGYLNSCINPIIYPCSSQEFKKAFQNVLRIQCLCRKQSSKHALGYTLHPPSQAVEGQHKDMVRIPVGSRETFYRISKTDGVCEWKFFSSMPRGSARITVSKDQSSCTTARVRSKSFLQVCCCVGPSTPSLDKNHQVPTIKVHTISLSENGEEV

[3] = biological target: T3, Estrogen receptor (Homo sapiens, UniProt P03372)
T3 sequence (P03372 whole entry): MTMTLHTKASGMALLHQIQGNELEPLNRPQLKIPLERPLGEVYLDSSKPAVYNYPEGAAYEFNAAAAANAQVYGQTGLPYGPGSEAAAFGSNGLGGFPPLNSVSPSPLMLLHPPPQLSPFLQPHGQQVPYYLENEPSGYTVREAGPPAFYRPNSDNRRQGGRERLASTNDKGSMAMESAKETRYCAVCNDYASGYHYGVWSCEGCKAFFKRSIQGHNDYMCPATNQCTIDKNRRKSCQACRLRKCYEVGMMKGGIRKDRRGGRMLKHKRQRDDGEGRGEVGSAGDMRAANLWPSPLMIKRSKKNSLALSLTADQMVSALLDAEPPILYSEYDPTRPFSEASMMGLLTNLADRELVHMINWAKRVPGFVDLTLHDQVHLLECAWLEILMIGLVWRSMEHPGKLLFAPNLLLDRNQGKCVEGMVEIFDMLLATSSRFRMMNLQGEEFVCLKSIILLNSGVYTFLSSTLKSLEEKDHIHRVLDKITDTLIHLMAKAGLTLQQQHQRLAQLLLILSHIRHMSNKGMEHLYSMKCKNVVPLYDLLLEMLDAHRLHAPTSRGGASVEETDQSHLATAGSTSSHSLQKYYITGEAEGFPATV

[4] = biological target: Histamine H2 receptor (Homo sapiens, UniProt P25021); format: functional, cell-based
Histamine H2 receptor, sequence (P25021 whole entry): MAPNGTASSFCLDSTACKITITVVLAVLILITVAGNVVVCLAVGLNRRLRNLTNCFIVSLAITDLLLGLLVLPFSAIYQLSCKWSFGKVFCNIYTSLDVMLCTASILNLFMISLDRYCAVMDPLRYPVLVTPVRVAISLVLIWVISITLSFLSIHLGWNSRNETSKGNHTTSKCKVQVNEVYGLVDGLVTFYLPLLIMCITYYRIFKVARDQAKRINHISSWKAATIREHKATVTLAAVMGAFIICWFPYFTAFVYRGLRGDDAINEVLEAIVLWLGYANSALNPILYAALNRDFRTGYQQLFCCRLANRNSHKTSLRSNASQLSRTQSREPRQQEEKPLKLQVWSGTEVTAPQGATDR

[5] = biological target: T4, Muscarinic acetylcholine receptor M1 (Homo sapiens, UniProt P11229); format: functional
T4 sequence (P11229 whole entry): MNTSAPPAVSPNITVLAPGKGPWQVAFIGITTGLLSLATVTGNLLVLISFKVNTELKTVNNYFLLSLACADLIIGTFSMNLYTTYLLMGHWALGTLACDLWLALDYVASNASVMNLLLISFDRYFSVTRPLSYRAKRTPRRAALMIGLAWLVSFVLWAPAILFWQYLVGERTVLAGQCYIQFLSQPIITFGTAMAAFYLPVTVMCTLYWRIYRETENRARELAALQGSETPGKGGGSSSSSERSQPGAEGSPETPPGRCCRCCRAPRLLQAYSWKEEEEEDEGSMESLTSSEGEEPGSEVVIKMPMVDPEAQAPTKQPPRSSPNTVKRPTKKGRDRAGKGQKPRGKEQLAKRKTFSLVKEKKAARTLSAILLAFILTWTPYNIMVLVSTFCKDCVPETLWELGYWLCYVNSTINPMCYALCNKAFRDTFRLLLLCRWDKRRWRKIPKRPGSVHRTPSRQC

[6] = biological target: T5, Gastrin/cholecystokinin type B receptor (Homo sapiens, UniProt P32239)
T5 sequence (P32239 whole entry): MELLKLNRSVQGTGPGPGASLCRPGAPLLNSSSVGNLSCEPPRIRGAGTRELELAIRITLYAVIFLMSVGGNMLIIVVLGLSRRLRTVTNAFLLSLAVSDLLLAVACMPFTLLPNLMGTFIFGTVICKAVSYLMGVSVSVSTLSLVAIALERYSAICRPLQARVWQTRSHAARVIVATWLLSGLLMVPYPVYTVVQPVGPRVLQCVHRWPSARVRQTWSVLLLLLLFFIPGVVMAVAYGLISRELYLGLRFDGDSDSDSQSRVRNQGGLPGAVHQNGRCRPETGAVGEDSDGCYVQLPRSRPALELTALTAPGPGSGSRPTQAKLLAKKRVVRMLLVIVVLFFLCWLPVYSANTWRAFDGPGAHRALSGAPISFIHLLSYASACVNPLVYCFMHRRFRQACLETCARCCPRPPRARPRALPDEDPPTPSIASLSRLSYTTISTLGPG
Note: assay procedure not described here.

Row | SMILES | AC50 [1] [µM] | AC50 [2] [µM] | AC50 [3] [µM] | AC50 [4] [µM] | AC50 [5] [µM] | AC50 [6] [µM]
1 | CC(C)NNC(=O)c1ccncc1 [IPRONIAZID] | > 30 | > 30 | – | – | – | –
2 | NC[C@H]1O[C@H](O[C@H]2[C@H](O)[C@@H](O[C@H]3O[C@H](CO)[C@@H](O)[C@H](N)[C@H]3O)[C@H](N)C[C@@H]2N)[C@H](O)[C@@H](O)[C@@H]1O [KANAMYCIN] | > 10 | > 30 | > 10 | > 30 | – | –
3 | CN1C(=O)CC(C)(c2ccccc2)C1=O (centres undefined) [METHSUXIMIDE] | > 10 | – | > 10 | > 30 | > 10 | –
4 | C[C@H]1C[C@@H]2[C@H]([C@@H](O)C[C@@]3(C)[C@H]2CC[C@]3(O)C(=O)CO)[C@@]2(C)C=CC(=O)C=C12 [METHYLPREDNISOLONE] | > 10 | – | – | > 30 | – | –
5 | CCN(CC)CCNC(=O)c1cc(Cl)c(N)cc1OC [METOCLOPRAMIDE] | > 10 | > 30 | > 30 | > 10 | – | > 30
6 | CC(C)(C(=O)c1cccnc1)c1cccnc1 [METYRAPONE] | > 10 | – | > 10 | > 10 | – | –
7 | Cc1cccc(C)c1OCC(C)N (centres undefined) [MEXILETINE] | – | > 30 | > 30 | > 30 | – | > 30
8 | CCc1nn(CCCN2CCN(c3cccc(Cl)c3)CC2)c(=O)n1CCOc1ccccc1 [NEFAZODONE] | – | 2.2 | > 30 | – | > 10 | > 30
9 | COC(=O)C1=C(C)NC(C)=C(C(=O)OCC(C)C)C1c1ccccc1[N+](=O)[O-] (centres undefined) [NISOLDIPINE] | > 10 | > 30 | > 30 | > 30 | – | –
10 | NC1=NC(=O)C(c2ccccc2)O1 (centres undefined) [PEMOLINE] | > 10 | – | – | > 10 | – | > 30
11 | CC[C@H](C)C(=O)O[C@H]1C[C@H](O)C=C2C=C[C@H](C)[C@H](CC[C@@H](O)C[C@@H](O)CC(=O)O)[C@H]21 [PRAVASTATIN] | > 30 | > 30 | – | > 10 | – | –
12 | CNC(=O)c1cc(Oc2ccc(NC(=O)Nc3ccc(Cl)c(C(F)(F)F)c3)cc2)ccn1 [SORAFENIB] | – | > 30 | – | > 30 | > 30 | > 10
13 | CC(C(=O)O)c1ccc(C(=O)c2cccs2)cc1 (centres undefined) [SUPROFEN] | > 10 | – | – | > 10 | > 10 | –
14 | Cc1ccc(C(=O)c2cc(O)c(O)c([N+](=O)[O-])c2)cc1 [TOLCAPONE] | 5.6 | – | – | > 10 | > 10 | –
15 | NC[C@H]1CC[C@H](C(=O)O)CC1 [TRANEXAMIC ACID] | > 10 | – | > 10 | > 30 | – | –
16 | CCCS(=O)(=O)Nc1ccc(F)c(C(=O)c2c[nH]c3ncc(-c4ccc(Cl)cc4)cc23)c1F [VEMURAFENIB] | – | > 30 | > 30 | > 30 | > 30 | > 30
17 | OCc1cc([C@@H](O)CNCCCCCCOCCOCc2c(Cl)cccc2Cl)ccc1O [VILANTEROL] | > 30 | 1.1 | – | – | > 30 | –
